In ChEMBL document CHEMBL1155150 (Antimicrob Agents Chemother, 2007):
Converted amounts (≈) assume the structure as drawn.

How the values were obtained:
Homo sapiens [1] = assay: Free Cmax in human at 500 mg, po; type: ADME, organism-based; conditions: in vivo
[2] = Half life in human plasma at 500 mg, po; type: ADME, organism-based
Yersinia pestis = assay: Antibacterial activity against Yersinia pestis delta CO92 by broth macrodilution method; type: functional
Homo sapiens [3] = assay: Free AUC (0 to 24 hrs) in human plasma at 500 mg, po; type: ADME, organism-based; conditions: in vivo
Homo sapiens [4] = assay: Free Cmin in human at 1 g, iv; type: ADME, organism-based; conditions: in vivo
Homo sapiens [5] = assay: Free Cmax in human at 1 g, iv; type: ADME, organism-based; conditions: in vivo
[6] = Half life in human plasma at 1 g, iv; type: ADME, organism-based

| Compound | fCmax (Homo sapiens [1]) | half-life [2] | MBC (Yersinia pestis) | MIC (Yersinia pestis) | fAUC (Homo sapiens [3]) | fCmin (Homo sapiens [4]) | fCmax (Homo sapiens [5]) | half-life [6] |
| --- | --- | --- | --- | --- | --- | --- | --- | --- |
| C[C@H]1COc2c(N3CCN(C)CC3)c(F)cc3c(=O)c(C(=O)O)cn1c23.C[C@H]1COc2c(N3CCN(C)CC3)c(F)cc3c(=O)c(C(=O)O)cn1c23.O [LEVOFLOXACIN] | 3.6 mg/L | 7 h | 0.125 µg/mL | 0.06 µg/mL | 36000 ng·h/mL |  |  |  |
| [H]/N=C(/N)N[C@H]1[C@H](O)[C@@H](O)[C@H](O[C@@H]2O[C@@H](C)[C@](O)(C=O)[C@H]2O[C@@H]2O[C@@H](CO)[C@H](O)[C@@H](O)[C@@H]2NC)[C@@H](N/C(N)=N\[H])[C@@H]1O [STREPTOMYCIN] |  |  | 2 µg/mL (≈ 3.44 µM) | 2 µg/mL (≈ 3.44 µM) |  | 2 mg/L | 38 mg/L | 2.5 h |
